Results from ChEMBL document CHEMBL1149308, “4-{(2R)-[3-Aminopropionylamido]-3-(2,4-dichlorophenyl)propionyl}-1-{2-[(2-thienyl)ethylaminomethyl]phenyl}piperazine as a potent and selective melanocortin-4 receptor antagonist--design, synthesis, and characterization” (J Med Chem, 2004).
Each block holds one compound with its values, some of them ahead of it. The source made the active and inactive calls. The calls are words filed in the database; no cut-off is given here.

Experiments:
[1] = Tmax in rat at 10 mg/kg, po; assay type: ADME, organism-based; parameters: dose 10 mg/kg, route oral; conditions: in vivo
[2] = molecular target: Melanocortin receptor 5 (Homo sapiens, UniProt P33032); assay type: cell-based, HEK293
Chain of Melanocortin receptor 5 (P33032 whole entry): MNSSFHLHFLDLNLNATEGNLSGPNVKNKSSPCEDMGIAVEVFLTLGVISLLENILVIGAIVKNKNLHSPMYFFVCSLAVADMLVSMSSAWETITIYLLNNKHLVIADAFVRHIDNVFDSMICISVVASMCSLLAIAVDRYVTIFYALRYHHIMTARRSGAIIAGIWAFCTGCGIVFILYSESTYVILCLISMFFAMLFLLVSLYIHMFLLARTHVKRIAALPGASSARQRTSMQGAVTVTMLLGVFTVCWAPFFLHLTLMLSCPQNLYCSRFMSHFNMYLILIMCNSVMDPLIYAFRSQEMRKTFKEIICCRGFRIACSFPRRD

[3] = Cmax in rat at 10 mg/kg, po; assay type: ADME, organism-based; parameters: dose 10 mg/kg, route oral; conditions: in vivo
[4] = Distribution coefficient, log D at pH 7.4; assay type: physicochemical; conditions: octanol/water
[5] = molecular target: T1, Melanocortin receptor 3 (Homo sapiens, UniProt P41968); assay type: cell-based, HEK293
T1 sequence (P41968 whole entry): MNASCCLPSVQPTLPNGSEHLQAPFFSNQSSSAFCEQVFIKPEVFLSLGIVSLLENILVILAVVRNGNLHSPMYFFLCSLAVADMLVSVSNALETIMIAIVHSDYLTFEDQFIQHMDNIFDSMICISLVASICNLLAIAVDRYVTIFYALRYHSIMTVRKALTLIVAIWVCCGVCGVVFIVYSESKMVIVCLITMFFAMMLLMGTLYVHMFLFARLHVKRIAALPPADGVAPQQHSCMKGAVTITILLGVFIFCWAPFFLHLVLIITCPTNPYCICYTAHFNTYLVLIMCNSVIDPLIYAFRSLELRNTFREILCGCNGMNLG

[6] = Oral bioavailability in rat at 10 mg/kg, po; assay type: ADME, organism-based; conditions: in vivo
[7] = Clearance in rat at 10 mg/kg, iv; assay type: ADME, organism-based; parameters: dose 10 mg/kg, route intravenous; conditions: in vivo
[8] = Ratio of drug level in brain to plasma of rat at 2 mg/kg, iv after […]; assay type: ADME, organism-based; parameters: dose 2 mg/kg, route intravenous
[9] = Concentration in rat brain at 2 mg/kg, iv after […]; assay type: ADME, organism-based; parameters: dose 2 mg/kg, route intravenous; conditions: read-out: Drug uptake
[10] = molecular target: T2, Melanocortin receptor 4 (Homo sapiens, UniProt P32245)
T2 sequence (P32245 whole entry): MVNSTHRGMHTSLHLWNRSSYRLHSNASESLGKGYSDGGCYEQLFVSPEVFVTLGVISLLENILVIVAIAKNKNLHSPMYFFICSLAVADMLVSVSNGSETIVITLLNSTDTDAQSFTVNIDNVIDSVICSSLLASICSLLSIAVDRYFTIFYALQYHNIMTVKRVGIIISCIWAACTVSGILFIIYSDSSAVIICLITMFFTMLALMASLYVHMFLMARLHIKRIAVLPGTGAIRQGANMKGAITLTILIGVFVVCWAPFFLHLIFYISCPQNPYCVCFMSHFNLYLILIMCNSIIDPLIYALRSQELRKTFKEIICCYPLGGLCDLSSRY
Description: (§1) Displacement of [125]NDP-MSH from human MC4 receptor expressed in HEK293 cells

[11] = Half life in rat at 10 mg/kg, iv; assay type: ADME, organism-based; parameters: dose 10 mg/kg, route intravenous; conditions: in vivo
[12] = Plasma concentration in rat at 2 mg/kg, iv after […]; assay type: ADME, organism-based; parameters: dose 2 mg/kg, route intravenous
[13] = molecular target: T2, Melanocortin receptor 4; assay: Antagonist activity at human MC4 receptor expressed in HEK293 cells assessed as inhibition of alpha-MSH-stimulated cAMP production; assay type: functional, cell-based; conditions: read-out: pA2 (converted)
[14] = Volume of distribution in rat at 10 mg/kg, iv; assay type: ADME, organism-based; parameters: dose 10 mg/kg, route intravenous; conditions: in vivo, read-out: Vdss
[15] = molecular target: T3, Melanocyte-stimulating hormone receptor (Homo sapiens, UniProt Q01726); assay type: cell-based, HEK293
Target sequence in this assay (Q01726 whole entry): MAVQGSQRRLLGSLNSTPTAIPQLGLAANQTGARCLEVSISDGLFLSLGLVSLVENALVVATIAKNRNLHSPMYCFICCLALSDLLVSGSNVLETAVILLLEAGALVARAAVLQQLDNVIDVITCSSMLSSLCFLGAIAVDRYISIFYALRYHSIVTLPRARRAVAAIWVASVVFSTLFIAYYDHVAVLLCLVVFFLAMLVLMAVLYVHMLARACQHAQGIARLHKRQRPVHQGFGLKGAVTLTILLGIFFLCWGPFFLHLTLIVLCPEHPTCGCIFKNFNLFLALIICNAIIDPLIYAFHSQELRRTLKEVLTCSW

[16] = AUC in rat at 10 mg/kg, po; assay type: ADME, organism-based; parameters: dose 10 mg/kg, route oral; conditions: plasma
[17] = Intrinsic clearance in human liver microsomes; assay type: ADME, Microsome
[18] = molecular target: T1, Melanocortin receptor 3; assay: Inhibition of human MC3 receptor expressed in HEK293 cells at 10 uM; assay type: cell-based
[19] = molecular target: T2, Melanocortin receptor 4; remark: listed apart in the source
Description: Agonist activity at human MC4 receptor expressed in HEK293 cells assessed as stimulation of cAMP production

[20] = molecular target: T3, Melanocyte-stimulating hormone receptor; assay: Inhibition of human MC1 receptor expressed in HEK293 cells at 10 uM; assay type: cell-based
Target sequence in this assay (Q01726 whole entry, looked up): as the sequence (Q01726 whole entry) above

[21] = molecular target: T2, Melanocortin receptor 4; assay: biochemical
Description: as §1

[22] = molecular target: T2, Melanocortin receptor 4; conditions: HEK293
Description: as §1

Compound: NCc1ccccc1N1CCN(C(=O)[C@@H](Cc2ccc(Cl)cc2)NC(=O)[C@H]2Cc3ccccc3CN2)CC1
inhibition [18]: 34%
EC50 [19]: 890 nM (agonist)
inhibition [20]: 27%

Compound: Cn1nnc(CC2(C3CCCCC3)CCN(C(=O)[C@@H](Cc3ccc(Cl)cc3)NC(=O)[C@H]3Cc4ccccc4CN3)CC2)n1
Ki [21]: 1.2 nM (antagonist)

Compound: CS(=O)(=O)N1CC2(CCN(C(=O)[C@@H](Cc3ccccc3)NC(=O)[C@@H](N)Cc3c[nH]cn3)CC2)c2ccccc21
Activity [22]: inactive

Further lines, results first:

Tmax [1]: 0.5 h
Ki [2]: 280 nM (antagonist)
Cmax [3]: 18 ng/mL
logD [4]: 1.1
Ki [5]: 640 nM (antagonist)
bioavailability [6]: 1%
clearance [7]: 24 mL/min/kg
Kp at […] [8]: 1
concentration at […] [9]: 75 ng/g
Ki [10]: 1.8 nM (antagonist)
half-life [11]: 4.6 h
concentration at […] [12]: 71 ng/mL
Kb [13]: 12.6 nM (antagonist)
Vd [14]: 9.5 L/kg
Ki [15]: 4200 nM (antagonist)
AUC [16]: 51 ng·h/mL
CLint scaled [17]: 23 mL/min/kg
Compound: NCCC(=O)N[C@H](Cc1ccc(Cl)cc1Cl)C(=O)N1CCN(c2ccccc2CNCCc2cccs2)CC1

Ki [5]: 1400 nM (antagonist)
Compound: NCCC(=O)N[C@H](Cc1ccc(Cl)cc1)C(=O)N1CCN(c2ccccc2CNCCc2cccs2)CC1

EC50 [19]: 580 nM (agonist)
Compound: NCC(=O)N[C@H](Cc1ccc(Cl)cc1)C(=O)N1CCN(c2ccccc2CNCCc2cccs2)CC1
